Assay results: ChEMBL document CHEMBL5661955, “ASAP - In vitro cytotoxicity” (2024)
Several values for one entry are separate records, joined by “and”; a condition that tells them apart may be missing. Equal entries are not always repeated.

Assays:
[1] = Functional metabolic assay to measure dose dependent changes in cell viability from drug treatment in Vero E6/TMPRSS2 cells (cotreated with P-gp inhibitor, Elacridar). […] Cytotoxicity is reported via measuring absorbance and analysis of MTT/MTS assays in uninfected cells. The assay has been performed by Icahn School of Medicine at Mount Sinai.; assay type: toxicity, cell-based, VeroE6/TMPRSS2; details: chlorocebus sabaeus, p-gp concentration 2 uM
[2] = Functional assay to measure dose dependent changes in cell viability from drug treatment in Vero E6 miRFP670 cells (cotreated with P-gp inhibitor, CP100356) that are infected with Dengue virus type 2 New Guinea C. […] Cytotoxicity is reported via via analysis of DAPI count using high-content imager. The assay has been performed by KU Leuven.; assay type: toxicity, cell-based, Vero C1008; details: chlorocebus sabaeus, with CP100356 (P-gp inhibitor, concentration not stated); p-gp concentration 500 nM
[3] = Functional CPE-based assay to measure dose dependent changes in cell viability from drug treatment in Vero E6 miRFP670 cells (cotreated with P-gp inhibitor, CP100356). Cells are treated with antiviral candidates that have been serially diluted. Cytotoxicity is reported via analysis of MTS assays in uninfected cells. The assay has been performed by KU Leuven.; assay type: toxicity, Vero C1008; details: chlorocebus sabaeus, Vero E6 miRFP670 cells, with CP100356 (P-gp inhibitor, concentration not stated); p-gp concentration 500 nM
[4] = Vero E6/TMPRSS2 cells, with Elacridar (P-gp inhibitor, concentration not stated)

Which CC10 ([1]; veroe6/tmprss2) does the source give for COc1ccc(CCNc2nc(N3CCc4cc(OC)c(OC)cc4C3)c3cc(OC)c(OC)cc3n2)cc1OC here?
The CC10 was under 0.005 µM.

Which CC50 [2] does the source give for C[C@@]1(O)[C@H](O)[C@@H](CO)O[C@H]1n1ccc(N)nc1=O here?
Its CC50 is over 200 µM.

Which CC50 [2] does the source give for CCCCCC(=O)N[C@H](C(=O)NCc1ccc(N)nc1)c1ccc(OCc2ccccc2)cc1 here?
The CC50 was 3.63 µM.

With N#Cc1cc(Cl)cc(C(=O)Nc2ccc3c(c2)CNC3)c1 as the compound, how does the CC50 [1, 4] read?
The CC50 was over 50 µM.

What about the CC10 ([1]; veroe6/tmprss2) of the same compound?
Its CC10 is over 50 µM.

With Cc1ccc(S(=O)(=O)CNC(=O)[C@H](Nc2ccc3c(c2)CNC3)c2cc(Cl)cc3[nH]ncc23)cc1 as the compound, how does the CC50 [1, 4] read?
The CC50 was over 50 µM.

And the CC10 ([1]; veroe6/tmprss2)?
Its CC10 is over 50 µM.

With O=C(Nc1ccc2c(c1)CNC2)c1cc(Cl)ccc1SC1CCCC1 as the compound, how does the CC50 [1, 4] read?
Its CC50 is over 50 µM.

And the CC10 ([1]; veroe6/tmprss2)?
Its CC10 is 41.64 µM.

With N#Cc1cc(Cl)cc([C@H](C#N)Nc2ccc3c(c2)CNC3)c1 as the compound, how does the CC50 [1, 4] read?
The CC50 was over 50 µM.

What about the CC10 ([1]; veroe6/tmprss2) of the same compound?
Its CC10 is over 50 µM.

Which CC50 [1, 4] does the source give for O=C(Nc1ccc2c(c1)CNC2)c1cc(Br)cc2[nH]c(C3CCOCC3)nc12 here?
The CC50 was 27.8 µM.

What about the CC10 ([1]; veroe6/tmprss2) of the same compound?
Its CC10 is 3.442 µM.

Which CC50 [1, 4] does the source give for CCc1cc(Cl)cc(C(=O)Nc2ccc3c(c2)CNC3)c1 here?
The CC50 was over 50 µM.

And the CC10 ([1]; veroe6/tmprss2)?
The CC10 was 10.908 µM.

With Cc1ccc2cc(Cl)cc(C(=O)Nc3ccc4c(c3)CNC4)c2n1 as the compound, how does the CC50 [1, 4] read?
The CC50 was 31.3 µM.

And the CC10 ([1]; veroe6/tmprss2)?
The CC10 was 2.835 µM.

Which CC50 [2] does the source give for CN(C)C(=O)c1cc(CN)cc([C@@H]2C[C@H]2c2cc(Cl)cc(NC(=O)OCc3ccccc3)c2)c1 here?
The CC50 was 4.09 µM.

With O=C(Nc1cnc2c(c1)CNCC2)c1cc(Cl)cc2[nH]ncc12 as the compound, how does the CC50 [1, 4] read?
Its CC50 is over 50 µM.

And the CC10 ([1]; veroe6/tmprss2)?
Its CC10 is over 50 µM.

For CC(=Cc1cc(Cl)cc(NC(=O)OCc2ccccc2)c1)c1cccc(CN)c1, which CC50 [2] is on record?
The CC50 was 0.906 µM.

Which results are given for O=C(NCC1CCOCC1)[C@H](Nc1ccc2c(c1)CNC2)c1cc(Cl)cc2[nH]ncc12?
CC50 [1, 4]: > 50 µM; CC10 ([1]; veroe6/tmprss2): > 50 µM

With C=CC[C@H](Nc1cc(Cl)cc(NC(=O)OCc2ccccc2)c1)c1cccc(CN)c1 as the compound, how does the CC50 [2] read?
Its CC50 is 3.34 µM.

Which results are given for CCOC(=O)[C@H]1[C@H](c2cc(Cl)cc(NC(=O)OCc3ccccc3)c2)[C@H]1c1cccc(-c2nnn[nH]2)c1?
CC50 [1, 4]: > 50 µM; CC10 ([1]; veroe6/tmprss2): > 50 µM

Which CC50 [1, 4] does the source give for NCc1cccc([C@@H]2C[C@H]2c2cc(Cl)cc(NC(=O)OCc3ccccc3)c2)c1 here?
The CC50 was over 50 µM.

What about the CC10 ([1]; veroe6/tmprss2) of the same compound?
Its CC10 is over 50 µM.

Which results are given for N#C[C@H](Nc1cccc(-c2nn[nH]n2)c1)c1cc(Cl)cc(NC(=O)OCc2ccccc2)c1?
CC50 [1, 4]: > 50 µM; CC10 ([1]; veroe6/tmprss2): > 50 µM

Which results are given for NCc1cccc(NC(=O)C[C@H](NC(=O)OCc2ccccc2)c2ccc(OCc3ccccc3)c(Br)c2)c1?
CC50 [1, 4]: 38.4 µM; CC10 ([1]; veroe6/tmprss2): 0.148 µM

Which CC50 [1, 4] does the source give for C=CC[C@H](Nc1cccc(-c2nn[nH]n2)c1)c1cc(Cl)cc2[nH]ncc12 here?
Its CC50 is over 5 µM.

And the CC10 ([1]; veroe6/tmprss2)?
The CC10 was over 5 µM.

With NCc1cccc(NC(=O)c2cc(Cl)cc(CN)c2)c1 as the compound, how does the CC50 ([1]; veroe6/tmprss2) read?
Its CC50 is over 50 µM.

With NCc1ccc2c(c1)[C@H]1OCCC[C@H]1[C@H](c1cc(Cl)cc(NC(=O)OCc3ccccc3)c1)N2 as the compound, how does the CC50 [2] read?
Its CC50 is 5.8 µM.

With CC[C@H](Cc1nnn[nH]1)c1ccc(NC(=O)c2cc(Cl)cc(-n3cccc3)c2)cc1 as the compound, how does the CC50 [1, 4] read?
Its CC50 is over 50 µM.

And the CC10 ([1]; veroe6/tmprss2)?
The CC10 was over 50 µM.

With O=S(=O)(Nc1cccc(-c2nnn[nH]2)c1)c1cc(Cl)cc(-c2ccccc2)c1 as the compound, how does the CC50 [1, 4] read?
The CC50 was over 50 µM.

And the CC10 ([1]; veroe6/tmprss2)?
Its CC10 is over 50 µM.

With O=C(Nc1cc(Cl)cc([C@H]2C[C@@H]2c2cccc(-c3nnn[nH]3)c2)c1)OCc1ccccc1 as the compound, how does the CC50 [2] read?
The CC50 was 16.3 µM.

For c1ccc2c(CN3CCC(c4cscn4)CC3)c[nH]c2c1, which CC50 ([1]; veroe6/tmprss2) is on record?
Its CC50 is over 50 µM.

With c1ccc(-c2csc(C3CCN(Cc4c[nH]c5ccccc45)CC3)n2)cc1 as the compound, how does the CC10 ([1]; veroe6/tmprss2) read?
Its CC10 is 0.299 µM and 0.162 µM.

What about the CC50 ([1]; veroe6/tmprss2) of the same compound?
The CC50 was > 10 µM and 20.1 µM.

What about the CC50 [2] of the same compound?
The CC50 was over 10 µM.

With CC1(C)NCc2cc(NC(=O)c3cc(F)cc4[nH]ncc34)ccc21 as the compound, how does the CC50 [3] read?
Its CC50 is over 50 µM.

Which CC50 [1, 4] does the source give for C[C@@H](N)c1cccc(NC(=O)[C@H]2[C@H]3CCCCC[C@H]3[C@H]2NC(=O)OCc2ccccc2)c1 here?
The CC50 was over 50 µM.

And the CC10 ([1]; veroe6/tmprss2)?
Its CC10 is 0.044 µM.

Which CC50 [1, 4] does the source give for CCOc1cccc(-c2ccc(S(=O)(=O)Nc3cc4c(cc3C(=O)O)CCC4)cc2)c1 here?
The CC50 was over 50 µM.

And the CC10 ([1]; veroe6/tmprss2)?
The CC10 was 5.671 µM.

For O=C(Nc1cc(Cl)cc(C(=O)Nc2cccc([C@H]3CCNC3)c2)c1)OCc1ccccc1, which CC50 [1, 4] is on record?
The CC50 was 20.1 µM.

What about the CC10 ([1]; veroe6/tmprss2) of the same compound?
The CC10 was 2.776 µM.

Which CC50 [2] does the source give for O=C(O)Cn1ncc2cc(-c3cc(Cl)cc(NC(=O)OCc4ccccc4)c3)ccc21 here?
The CC50 was over 50 µM.

What does the source list for CCOC(=O)Nc1cc(Cl)cc(C(=O)Nc2cccc(CN)c2)c1?
CC50 [1, 4]: > 50 µM; CC10 ([1]; veroe6/tmprss2): > 50 µM

With CCOc1cccc(-c2ccc(S(=O)(=O)Nc3ccc(Cl)cc3C(=O)O)cc2)c1 as the compound, how does the CC50 ([1]; veroe6/tmprss2) read?
The CC50 was over 50 µM.

With NCCCCc1ccc(NC(=O)c2cc(Cl)cc(NC(=O)OCc3ccccc3)c2)cc1 as the compound, how does the CC50 [1, 4] read?
Its CC50 is over 50 µM.

And the CC10 ([1]; veroe6/tmprss2)?
Its CC10 is over 50 µM.

What about the CC50 [2] of the same compound?
Its CC50 is 6.49 µM.

What does the source list for O=C(Nc1cc(Cl)cc(S(=O)(=O)Nc2cccc(-c3nn[nH]n3)c2)c1)OCc1ccccc1?
CC50 [1, 4]: > 50 µM; CC10 ([1]; veroe6/tmprss2): > 50 µM

Which CC50 [2] does the source give for NCc1cccc(CNC(=O)[C@@H](NC(=O)OCc2ccccc2)c2ccc(OCc3ccccc3)cc2)c1 here?
Its CC50 is 1.9 µM.

With NCc1ccc(F)c(NC(=O)c2cc(Cl)cc(NC(=O)OCc3ccccc3)c2)c1 as the compound, how does the CC50 [1, 4] read?
Its CC50 is over 50 µM.

And the CC10 ([1]; veroe6/tmprss2)?
Its CC10 is over 50 µM.
